Source: PubChem BioAssay (NCI)
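Assay format: 96-well plates, 48-hour exposure. Definition used: TGI = concentration required for complete inhibition of growth.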

Columns and labels:
Assay in all cases: NCI tumour cell line growth inhibition, 48 h
[1] = tested on: 786-0 renal
[2] = tested on: A498 renal
[3] = tested on: A549 NSCLC
[4] = tested on: ACHN renal
[5] = tested on: CAKI-1 renal
[6] = tested on: CCRF-CEM leukemia
[7] = tested on: COLO 205 colon
[8] = tested on: DLD-1 colon
[9] = tested on: EKVX NSCLC
[10] = tested on: HCC-2998 colon
[11] = tested on: HCT-116 colon
[12] = tested on: HCT-15 colon
[13] = tested on: HL-60(TB) leukemia
[14] = tested on: HOP-18 NSCLC
[15] = tested on: HOP-62 NSCLC
[16] = tested on: HOP-92 NSCLC
[17] = tested on: HT29 colon
[18] = tested on: IGROV1 ovarian
[19] = tested on: K-562 leukemia
[20] = tested on: KM12 colon
[21] = tested on: KM20L2 colon
[22] = tested on: LOX IMVI melanoma
[23] = tested on: LXFL 529 NSCLC
[24] = tested on: M14 melanoma
[25] = tested on: M19-MEL melanoma
[26] = tested on: MALME-3M melanoma
[27] = tested on: MOLT-4 leukemia
[28] = tested on: NCI-H226 lung
[29] = tested on: NCI-H23 lung
[30] = tested on: NCI-H460 lung
[31] = tested on: NCI-H522 lung
[32] = tested on: OVCAR-3 ovarian
[33] = tested on: OVCAR-4 ovarian
[34] = tested on: OVCAR-5 ovarian
[35] = tested on: OVCAR-8 ovarian
[36] = tested on: RPMI-8226 leukemia
[37] = tested on: RXF 393 renal
[38] = tested on: RXF-631 renal
[39] = tested on: SF-268 CNS
[40] = tested on: SF-295 CNS
[41] = tested on: SF-539 CNS
[42] = tested on: SK-MEL-2 melanoma
[43] = tested on: SK-MEL-28 melanoma
[44] = tested on: SK-MEL-5 melanoma
[45] = tested on: SK-OV-3 ovarian
[46] = tested on: SN12C renal
[47] = tested on: SNB-19 CNS
[48] = tested on: SNB-75 CNS
[49] = tested on: SR leukemia
[50] = tested on: SW-620 colon
[51] = tested on: TK-10 renal
[52] = tested on: U251 CNS
[53] = tested on: UACC-257 melanoma
[54] = tested on: UACC-62 melanoma
[55] = tested on: UO-31 renal
[56] = tested on: XF 498 CNS
[57] = tested on: DMS 273 small cell lung
[58] = tested on: SNB-78 CNS
[59] = tested on: DMS 114 small cell lung

SMILES: CCCCC(C)C(OC(=O)CC(CC(=O)O)C(=O)O)C(CC(C)CC(O)CCCCC(O)CC(O)C(C)N)OC(=O)CC(CC(=O)O)C(=O)O (configuration not stated)
- TGI [1]: > 100 µM
- TGI [2]: > 100 µM
- TGI [3]: > 100 µM
- TGI [4]: > 100 µM
- TGI [5]: > 100 µM
- TGI [6]: > 100 µM
- TGI [7]: > 100 µM
- TGI [8]: > 100 µM
- TGI [9]: > 100 µM
- TGI [10]: > 100 µM
- TGI [11]: > 100 µM
- TGI [12]: > 100 µM
- TGI [13]: > 100 µM
- TGI [14]: > 100 µM
- TGI [15]: > 100 µM
- TGI [16]: > 100 µM
- TGI [17]: > 100 µM
- TGI [18]: > 100 µM
- TGI [19]: > 100 µM
- TGI [20]: > 100 µM
- TGI [21]: > 100 µM
- TGI [22]: > 100 µM
- TGI [23]: > 100 µM
- TGI [24]: > 100 µM
- TGI [25]: > 100 µM
- TGI [26]: > 100 µM
- TGI [27]: > 100 µM
- TGI [28]: > 100 µM
- TGI [29]: > 100 µM
- TGI [30]: > 100 µM
- TGI [31]: > 100 µM
- TGI [32]: > 100 µM
- TGI [33]: > 100 µM
- TGI [34]: > 100 µM
- TGI [35]: > 100 µM
- TGI [36]: > 100 µM
- TGI [37]: > 100 µM
- TGI [38]: > 100 µM
- TGI [39]: > 100 µM
- TGI [40]: > 100 µM
- TGI [41]: > 100 µM
- TGI [42]: > 100 µM
- TGI [43]: > 100 µM
- TGI [44]: > 100 µM
- TGI [45]: > 100 µM
- TGI [46]: > 100 µM
- TGI [47]: > 100 µM
- TGI [48]: > 100 µM
- TGI [49]: > 100 µM
- TGI [50]: > 100 µM
- TGI [51]: > 100 µM
- TGI [52]: > 100 µM
- TGI [53]: > 100 µM
- TGI [54]: > 100 µM
- TGI [55]: > 100 µM
- TGI [56]: > 100 µM

SMILES: CN(C)c1ccc(/C=C/c2ccc(/C=C/c3ccc(N(C)C)cc3)cc2)cc1
- TGI [1]: > 100 µM
- TGI [2]: > 100 µM
- TGI [3]: > 100 µM
- TGI [4]: > 100 µM
- TGI [5]: > 100 µM
- TGI [6]: > 100 µM
- TGI [7]: > 100 µM
- TGI [8]: > 100 µM
- TGI [57]: > 100 µM
- TGI [9]: > 100 µM
- TGI [10]: > 100 µM
- TGI [11]: > 100 µM
- TGI [12]: > 100 µM
- TGI [13]: > 100 µM
- TGI [14]: > 100 µM
- TGI [16]: > 100 µM
- TGI [17]: > 100 µM
- TGI [18]: > 100 µM
- TGI [19]: > 100 µM
- TGI [20]: > 100 µM
- TGI [21]: > 100 µM
- TGI [22]: > 100 µM
- TGI [23]: > 100 µM
- TGI [24]: > 100 µM
- TGI [25]: > 100 µM
- TGI [26]: > 100 µM
- TGI [27]: > 100 µM
- TGI [28]: > 100 µM
- TGI [29]: > 100 µM
- TGI [30]: > 100 µM
- TGI [31]: > 100 µM
- TGI [32]: > 100 µM
- TGI [33]: > 100 µM
- TGI [34]: > 100 µM
- TGI [35]: > 100 µM
- TGI [36]: > 100 µM
- TGI [37]: > 100 µM
- TGI [38]: > 100 µM
- TGI [39]: > 100 µM
- TGI [40]: > 100 µM
- TGI [41]: > 100 µM
- TGI [42]: > 100 µM
- TGI [43]: > 100 µM
- TGI [44]: > 100 µM
- TGI [45]: > 100 µM
- TGI [46]: > 100 µM
- TGI [47]: > 100 µM
- TGI [48]: > 100 µM
- TGI [58]: > 100 µM
- TGI [50]: > 100 µM
- TGI [51]: > 100 µM
- TGI [52]: > 100 µM
- TGI [53]: > 100 µM
- TGI [54]: > 100 µM
- TGI [55]: > 100 µM

SMILES: O=S(=O)(O)c1ccc(N=Nc2nc(C(F)(F)F)c(C(F)(F)F)[nH]2)cc1
- TGI [1]: > 100 µM
- TGI [3]: > 100 µM
- TGI [4]: > 100 µM
- TGI [5]: 89.4 µM
- TGI [6]: > 100 µM
- TGI [7]: > 100 µM
- TGI [8]: > 100 µM
- TGI [59]: 30.5 µM
- TGI [57]: > 100 µM
- TGI [9]: > 100 µM
- TGI [11]: > 100 µM
- TGI [12]: > 100 µM
- TGI [13]: > 100 µM
- TGI [14]: > 100 µM
- TGI [15]: > 100 µM
- TGI [16]: 31.6 µM
- TGI [17]: > 100 µM
- TGI [18]: > 100 µM
- TGI [19]: > 100 µM
- TGI [20]: > 100 µM
- TGI [21]: > 100 µM
- TGI [22]: 29.2 µM
- TGI [23]: > 100 µM
- TGI [24]: 46.6 µM
- TGI [25]: > 100 µM
- TGI [26]: > 100 µM
- TGI [27]: > 100 µM
- TGI [28]: > 100 µM
- TGI [29]: 68.7 µM
- TGI [30]: > 100 µM
- TGI [32]: > 100 µM
- TGI [33]: 50.4 µM
- TGI [34]: 36 µM
- TGI [35]: > 100 µM
- TGI [36]: > 100 µM
- TGI [37]: 32.9 µM
- TGI [38]: > 100 µM
- TGI [39]: > 100 µM
- TGI [40]: > 100 µM
- TGI [41]: 65.9 µM
- TGI [42]: > 100 µM
- TGI [43]: 36.2 µM
- TGI [44]: > 100 µM
- TGI [45]: > 100 µM
- TGI [46]: > 100 µM
- TGI [47]: 71.1 µM
- TGI [48]: > 100 µM
- TGI [58]: > 100 µM
- TGI [49]: 69.9 µM
- TGI [50]: > 100 µM
- TGI [51]: > 100 µM
- TGI [52]: > 100 µM
- TGI [53]: > 100 µM
- TGI [54]: 72.2 µM
- TGI [55]: > 100 µM
- TGI [56]: 41.1 µM
